Consider one molecule from ChEMBL document CHEMBL6074668 (J Med Chem, 2024).

Structures are written as SMILES.

Experiment [1] deals with T1, Alpha-1D adrenergic receptor (Homo sapiens, UniProt P25100).
T1 sequence (P25100 whole entry): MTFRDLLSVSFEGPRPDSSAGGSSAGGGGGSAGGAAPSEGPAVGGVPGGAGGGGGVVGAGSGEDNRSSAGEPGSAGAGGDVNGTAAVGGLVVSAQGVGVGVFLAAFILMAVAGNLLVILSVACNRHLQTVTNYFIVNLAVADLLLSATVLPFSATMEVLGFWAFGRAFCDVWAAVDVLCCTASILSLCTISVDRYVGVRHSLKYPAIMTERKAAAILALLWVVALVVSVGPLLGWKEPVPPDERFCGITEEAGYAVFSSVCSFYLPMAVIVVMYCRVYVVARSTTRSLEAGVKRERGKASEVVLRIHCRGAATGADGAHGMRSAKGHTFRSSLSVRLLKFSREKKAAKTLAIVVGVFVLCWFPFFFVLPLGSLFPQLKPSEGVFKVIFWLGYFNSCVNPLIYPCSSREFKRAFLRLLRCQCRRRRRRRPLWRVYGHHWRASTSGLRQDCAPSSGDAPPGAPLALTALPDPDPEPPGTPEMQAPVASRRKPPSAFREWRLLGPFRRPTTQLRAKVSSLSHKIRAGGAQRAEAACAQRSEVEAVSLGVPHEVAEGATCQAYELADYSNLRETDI
As to the kind of experiment: Binding affinity to alpha1D adrenergic receptor (unknown origin) by radioligand displacement assay.

Experiment [2] is described as follows: Binding affinity to alpha7 […] receptor (unknown origin) by radioligand displacement assay. Also noted: species or system Homo sapiens.
Experiment [3] concerns the target Kappa-type opioid receptor (Homo sapiens, UniProt P41145). As to the kind of experiment: Agonist activity at human kappa opioid receptor expressed in CHO-K1 cells assessed as inhibition of forskolin-stimulated cAMP accumulation by HitHunter assay based luminescence analysis. In kind it is functional, cell-based.
Experiment [4] deals with T2, Alpha-1A adrenergic receptor (Homo sapiens, UniProt P35348).
T2 sequence (P35348 whole entry): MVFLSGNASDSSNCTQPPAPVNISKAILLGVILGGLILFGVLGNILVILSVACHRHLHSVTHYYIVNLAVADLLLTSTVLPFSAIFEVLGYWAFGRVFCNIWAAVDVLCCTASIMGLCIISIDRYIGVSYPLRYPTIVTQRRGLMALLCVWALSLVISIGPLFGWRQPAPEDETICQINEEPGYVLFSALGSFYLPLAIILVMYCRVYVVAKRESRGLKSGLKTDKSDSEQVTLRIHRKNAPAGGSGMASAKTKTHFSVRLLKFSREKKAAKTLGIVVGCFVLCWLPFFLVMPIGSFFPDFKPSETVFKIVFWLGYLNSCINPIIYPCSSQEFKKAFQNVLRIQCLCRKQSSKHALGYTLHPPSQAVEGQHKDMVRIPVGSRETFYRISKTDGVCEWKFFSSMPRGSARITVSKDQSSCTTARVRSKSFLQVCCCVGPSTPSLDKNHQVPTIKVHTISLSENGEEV
The experiment is described as follows: Binding affinity to alpha1A adrenergic receptor (unknown origin) by radioligand displacement assay.

For experiment [5], the target named is Sodium-dependent noradrenaline transporter (Homo sapiens, UniProt P23975).
Sequence of Sodium-dependent noradrenaline transporter (P23975 whole entry): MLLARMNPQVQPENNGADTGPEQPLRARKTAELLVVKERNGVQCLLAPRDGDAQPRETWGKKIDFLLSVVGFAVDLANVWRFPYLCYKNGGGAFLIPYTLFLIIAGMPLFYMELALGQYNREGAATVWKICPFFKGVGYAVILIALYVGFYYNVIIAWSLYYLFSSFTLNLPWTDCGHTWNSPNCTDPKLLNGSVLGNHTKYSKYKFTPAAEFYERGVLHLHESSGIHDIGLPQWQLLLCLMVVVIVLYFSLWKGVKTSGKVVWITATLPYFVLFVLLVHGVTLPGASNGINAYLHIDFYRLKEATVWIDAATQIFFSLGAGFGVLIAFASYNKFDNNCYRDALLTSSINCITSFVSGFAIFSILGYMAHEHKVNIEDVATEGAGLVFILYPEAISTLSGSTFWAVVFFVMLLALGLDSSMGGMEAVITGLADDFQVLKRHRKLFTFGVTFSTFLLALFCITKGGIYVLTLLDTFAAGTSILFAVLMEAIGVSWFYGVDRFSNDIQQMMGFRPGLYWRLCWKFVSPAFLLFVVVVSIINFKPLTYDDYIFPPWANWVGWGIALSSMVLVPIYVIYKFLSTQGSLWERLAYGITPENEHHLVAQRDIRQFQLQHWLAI
Description: Binding affinity to NET (unknown origin) by radioligand displacement assay
Experiment [6] has as its target Voltage-gated inwardly rectifying potassium channel KCNH2 (Homo sapiens, UniProt Q12809). As to the kind of experiment: Binding affinity to hERG by radioligand displacement assay. Format: toxicity.

Sequence of Voltage-gated inwardly rectifying potassium channel KCNH2 (Q12809 whole entry): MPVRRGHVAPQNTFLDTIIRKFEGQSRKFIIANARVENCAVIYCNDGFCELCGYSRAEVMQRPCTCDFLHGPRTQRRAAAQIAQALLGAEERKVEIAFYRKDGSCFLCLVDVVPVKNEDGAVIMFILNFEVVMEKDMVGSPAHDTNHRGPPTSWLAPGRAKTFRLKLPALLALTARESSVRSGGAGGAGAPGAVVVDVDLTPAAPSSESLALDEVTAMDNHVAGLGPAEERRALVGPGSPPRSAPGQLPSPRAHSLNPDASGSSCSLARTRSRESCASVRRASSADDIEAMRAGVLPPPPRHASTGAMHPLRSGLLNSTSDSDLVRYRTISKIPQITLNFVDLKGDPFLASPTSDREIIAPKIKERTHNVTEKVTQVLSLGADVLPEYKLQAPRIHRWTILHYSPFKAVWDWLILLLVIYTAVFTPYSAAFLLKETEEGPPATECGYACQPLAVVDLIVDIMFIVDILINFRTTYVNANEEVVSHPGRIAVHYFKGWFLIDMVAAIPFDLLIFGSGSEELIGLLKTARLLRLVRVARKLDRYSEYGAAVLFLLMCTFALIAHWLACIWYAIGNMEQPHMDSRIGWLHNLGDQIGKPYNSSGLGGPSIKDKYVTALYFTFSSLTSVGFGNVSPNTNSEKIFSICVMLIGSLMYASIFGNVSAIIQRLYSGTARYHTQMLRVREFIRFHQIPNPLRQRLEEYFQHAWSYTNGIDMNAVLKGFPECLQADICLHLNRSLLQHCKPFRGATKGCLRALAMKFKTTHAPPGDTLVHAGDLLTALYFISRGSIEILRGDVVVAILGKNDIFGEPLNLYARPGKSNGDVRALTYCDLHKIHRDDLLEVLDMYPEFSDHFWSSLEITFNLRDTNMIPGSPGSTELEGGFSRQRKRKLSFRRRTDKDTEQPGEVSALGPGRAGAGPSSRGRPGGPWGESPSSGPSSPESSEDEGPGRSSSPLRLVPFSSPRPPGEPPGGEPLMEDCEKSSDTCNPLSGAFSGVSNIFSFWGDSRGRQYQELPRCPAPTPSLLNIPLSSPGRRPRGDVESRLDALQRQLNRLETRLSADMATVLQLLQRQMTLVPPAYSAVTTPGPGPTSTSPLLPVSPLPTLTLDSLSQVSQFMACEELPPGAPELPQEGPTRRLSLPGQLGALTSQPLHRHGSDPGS
Sequence of Kappa-type opioid receptor (P41145 whole entry): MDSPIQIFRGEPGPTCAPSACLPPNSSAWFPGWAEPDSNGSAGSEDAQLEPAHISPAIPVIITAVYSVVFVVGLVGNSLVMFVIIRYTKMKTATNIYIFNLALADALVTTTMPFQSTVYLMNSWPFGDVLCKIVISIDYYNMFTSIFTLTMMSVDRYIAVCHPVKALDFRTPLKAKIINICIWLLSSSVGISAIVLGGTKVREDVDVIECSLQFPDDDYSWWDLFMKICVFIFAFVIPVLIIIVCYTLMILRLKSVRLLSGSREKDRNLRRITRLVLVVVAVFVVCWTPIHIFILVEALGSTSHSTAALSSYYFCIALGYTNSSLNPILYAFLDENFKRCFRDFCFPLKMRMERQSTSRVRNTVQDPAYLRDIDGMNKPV

For the molecule `C/C=C1/CN2CC[C@]34C(=C(C(=O)OC)[C@H]1C[C@H]23)Nc1ccc(I)cc14`, the Ki was 1140 nM in experiment [1]; 5490 nM in experiment [2]; 883 nM in experiment [4]; 3440 nM in experiment [5]; 1100 nM in experiment [6]. In experiment [3], the EC50 was found to be 5.7 nM.
